In one series the test system is HIVADA. In words: Antiretroviral activities of RTV (p24 staining, RT activity) in HIVADA infected MDM. In kind it is cell-based, HIV-1. Conditions: 12 hours treatment, HIV challenge day 1, read 10 days after infection. On the procedure: Drug-treated MDMs were infected with HIVADA at a multiplicity of infection of 0.01 infectious viral particles/cell (Gendelman et al. (1988) J. Exp. Med., 167:1428-1441) on day 1 after RTV-NP treatment. Following viral infection, cells were cultured for 10 days with half media exchanges every other day. Media samples were collected 10 days after infection for measurement of progeny virion production as assayed by reverse transcriptase (RT) activity (Kalter et al. (1991) J. Immunol., 146:3396-3404). Parallel analyses for expression of HIV p24 antigen in infected cells were performed by immunostaining using p24 mouse monoclonal Ab (Dako [CA, USA]) on the same day as media sampling.
In a 96-well plate, media samples (10 μl) were mixed with 10 μl of a solution containing 100 mM Tris-HCl (pH 7.9), 300 mM KCl, 10 mM dithiothreitol, 0.1% nonyl phenoxylpolyethoxylethanol-40 (NP-40) and water. […] Following incubation, 50 μl of cold 10% TCA was added to each well; the wells were harvested onto glass fiber filters, and the filters were assessed for tritiated thymidine triphosphate incorporation by β-scintillation spectroscopy using a TopCount NX™ (PerkinElmer Inc. [MA, USA]) (Kalter et al. (1991) J. Immunol., 146:3396-3404). […]

The nature of series [1]: Plasma concentration after low dose SC injection of nanoparticle or free drug. Type of series: in vivo, Mice. The note with it: 10 mg/kg SC; for concentration at 0.25 hr / concentration at 1 hr / concentration at 3 hr / concentration at 6 hr / concentration at 10 hr / concentration at 24 hr / concentration at 48 hr / concentration at 96 hr / concentration at 168 hr / concentration at 336 hr: mouse, plasma, subcutaneous. On the procedure:
Mice were also administered nanoparticles or free drug at only 10 mg/kg by SC injection.

The subject of series [2] is a variety of HIV strains and host cell types. Conditions: read-out: EC50 levels for anti-HIV activity; cited from earlier work.
The conditions of series [3]: cited from earlier work.
The conditions of series [4]: cited from earlier work. The source holds these as a separate data set.

Each structure is given as a SMILES string. Some results are limits rather than exact numbers.

As usually defined, the EC50 is the concentration at which the effect is half-maximal.

Regarding `CC(C)c1nc(CN(C)C(=O)N[C@H](C(=O)N[C@@H](Cc2ccccc2)C[C@H](O)[C@H](Cc2ccccc2)NC(=O)OCc2cncs2)C(C)C)cs1` [RTV, ritonavir], in the series with HIVADA, the “protection against HIV infection (p24 staining, multinucleated giant cells)” value is recorded as “no protection against infection”. Moreover, in series [1], the concentration at 0.25 hr turned out to be 1.08 µg/mL, the concentration at 1 hr amounted to 0.492 µg/mL, the concentration at 3 hr amounted to 0.711 µg/mL and the concentration at 6 hr was found to be 0.551 µg/mL. In series [1], this compound registered a concentration at 10 hr of 0.0691 µg/mL, a concentration at 24 hr of 0.00591 µg/mL, a concentration at 48 hr of 0.00236 µg/mL and a concentration at 96 hr of 0.00494 µg/mL. The same compound returned a concentration at 168 hr in series [1] of 0.00221 µg/mL. This compound also showed a concentration at 336 hr in series [1] (336 hr) of 0 µg/mL. Besides, the EC50 in series [2] is 0.035 to 0.2 µM. Besides, the “therapeutic human plasma levels” value in series [3] is 3.5 to 9.6 µg/mL.

On to `O=C1Nc2ccc(Cl)cc2[C@@](C#CC2CC2)(C(F)(F)F)O1` [EFV, efavirenz], for which, in series [4], the “solubility of free-base drug” value is 0.009 mg/mL. The “Plasma concentration, 336 hr” value in series [1] (336 hr) is “<LLOQ”. In series [1], this compound showed a concentration at 0.25 hr of 0.301 µg/mL, a concentration at 1 hr of 0.124 µg/mL, a concentration at 3 hr of 0.155 µg/mL and a concentration at 6 hr of 0.213 µg/mL. In series [1], this compound displayed a concentration at 10 hr of 0.04 µg/mL, a concentration at 24 hr of 0.0071 µg/mL, a concentration at 48 hr of 0.00217 µg/mL and a concentration at 96 hr of 0.00299 µg/mL. In addition, in series [1], the concentration at 168 hr was found to be 0.00257 µg/mL. The EC50 in series [2] is 0.0017 to 0.025 µM. Moreover, the “therapeutic human plasma levels” value in series [3] is 1.8 to 4.1 µg/mL.

As for `CC(C)(C)NC(=O)[C@@H]1CN(Cc2cccnc2)CCN1C[C@@H](O)C[C@@H](Cc1ccccc1)C(=O)N[C@H]1c2ccccc2C[C@H]1O` [IDV, indinavir], the EC50 in series [2] is 0.005 to 0.029 µM.

Regarding `COC(=O)N[C@H](C(=O)N[C@@H](Cc1ccccc1)[C@@H](O)CN(Cc1ccc(-c2ccccn2)cc1)NC(=O)[C@@H](NC(=O)OC)C(C)(C)C)C(C)(C)C` [ATV, atazanavir], in series [4], the “solubility of free-base drug” value was 4 to 5 mg/mL. Further, in series [1], the concentration at 0.25 hr was 1.15 µg/mL, the concentration at 1 hr worked out at 0.804 µg/mL, the concentration at 3 hr stood at 2.06 µg/mL and the concentration at 6 hr amounted to 2.1 µg/mL. In series [1], this compound came in with a concentration at 10 hr of 0.639 µg/mL, a concentration at 24 hr of 0.00985 µg/mL, a concentration at 48 hr of 0.00438 µg/mL and a concentration at 96 hr of 0.0043 µg/mL. The compound further returned a concentration at 168 hr in series [1] of 0.00174 µg/mL. The compound also had a concentration at 336 hr in series [1] (336 hr) of 0 µg/mL. The EC50 in series [2] is 0.002 to 0.005 µM. Further, in series [3], the “therapeutic human plasma levels” value was 0.3 to 2.2 µg/mL. In addition, the “minimum human therapeutic serum level” value in series [3] (human serum) was 150 ng/mL.

(Values after patent US20130236553A1, “Compositions and Methods for the Delivery of Therapeutics” (Board of Regents of the University of Nebraska, priority 2010, published 2013).)
